From ChEMBL document CHEMBL5505997, “Synthesis and biological evaluation of novel peptidomimetic inhibitors of the coronavirus 3C-like protease” (Eur J Med Chem, 2024)

Columns and labels:
[1] = system: SARS-CoV-2; experiment: Antiviral activity against wild type SARS-CoV-2 Omicron BA.1 infected in HEK293T cells measured after 48 hrs by Nano-Glo luciferase assay; assay type: functional, organism-based; conditions: Severe acute respiratory syndrome coronavirus 2, Omicron BA.1, HEK-293T
[2] = Cytotoxicity against African green monkey Vero cells assessed as reduction in cell viability; assay type: toxicity, cell-based; conditions: chlorocebus sabaeus
[3] = system: SARS-CoV-2; experiment: Antiviral activity against wild type SARS-CoV-2 WA1 infected in HEK293T cells measured after 48 hrs by Nano-Glo luciferase assay; assay type: functional, organism-based; conditions: Severe acute respiratory syndrome coronavirus 2, WA1, HEK-293T
[4] = system: SARS-CoV-2; experiment: Antiviral activity against SARS-CoV-2 hCoV-19/USA-WA1/2020 Washington strain infected in Normal human bronchial/tracheal epithelial cells cultured in air-liquid interface media assessed as reduction in viral yield pretreated with compound followed by viral infection for 4 hrs post washout and measured 3 days after virus removal by qRT-PCR analysis; assay type: functional, organism-based; conditions: Severe acute respiratory syndrome coronavirus 2, hCoV-19/USA-WA1/2020 Washington, Epithelial cell
[5] = system: CCRF-CEM; experiment: (§1) Cytotoxicity against human CEM cells assessed as reduction in cell viability; assay type: toxicity, cell-based; conditions: ccrf-cem
[6] = system: SARS-CoV-2; experiment: Antiviral activity against SARS-CoV-2 hCoV-19/USA/GA-EHC-2811C/2021 (Omicron B.1.1.529) infected in human Calu-3 cells assessed as reduction in viral yield measured after 48 hrs by qRT-PCR analysis; assay type: functional, organism-based; conditions: Severe acute respiratory syndrome coronavirus 2, hCoV-19/USA/GA-EHC-2811C/2021 (Omicron B.1.1.529); for EC50: Calu-3, 48 h; for EC90: Calu-3, time 48 hrs
[7] = system: SARS-CoV-2; experiment: Antiviral activity against SARS-CoV-2 infected in human Caco-2 cells assessed as reduction in viral yield measured after 72 hrs by qRT-PCR analysis; assay type: functional, organism-based, Severe acute respiratory syndrome coronavirus 2; conditions: for EC90: Severe acute respiratory syndrome coronavirus 2, Caco-2, time 72 hrs
[8] = system: Huh-7; experiment: (§2) Cytotoxicity against human Huh-7 cells assessed as reduction in cell viability; assay type: toxicity, cell-based; conditions: huh-7
[9] = Cytotoxicity against human PBMC cells assessed as reduction in cell viability; assay type: toxicity, cell-based
[10] = system: SARS-CoV-2; experiment: Antiviral activity against SARS-CoV-2 infected in Vero cells assessed as reduction in viral yield measured after 48 hrs by qRT-PCR analysis; assay type: functional, organism-based; conditions: Severe acute respiratory syndrome coronavirus 2, Vero; for EC50: 48 h; for EC90: time 48 hrs
[11] = system: Human coronavirus OC43; experiment: Antiviral activity against Human coronavirus OC43 infected in Vero cells assessed as reduction in viral yield preincubated with virus for 1 hr followed by washout and compound treatment and measured after 3 days by qRT-PCR analysis; assay type: functional, organism-based; conditions: Betacoronavirus 1, Vero; for EC90: 72 h, time 3 day
[12] = (§3) Cytotoxicity against human Caco-2 cells assessed as reduction in cell viability; assay type: toxicity, cell-based; conditions: Caco-2 cells
[13] = (§4) Cytotoxicity against human Calu-3 cells assessed as reduction in cell viability; assay type: toxicity, cell-based; conditions: Calu-3 cells
[14] = system: SARS-CoV-2; experiment: Antiviral activity against SARS-CoV-2 infected in human Calu-3 cells assessed as reduction in viral yield measured after 72 hrs by qRT-PCR analysis; assay type: functional, organism-based, Severe acute respiratory syndrome coronavirus 2; conditions: for EC90: Severe acute respiratory syndrome coronavirus 2, Calu-3, time 72 hrs; for EC50: Severe acute respiratory syndrome coronavirus 2, Calu-3, 72 h
[15] = system: SARS-CoV-2; experiment: Selectivity ratio of EC50 for antiviral activity against SARS-CoV-2 infected in Vero cells to EC50 for antiviral activity against SARS-CoV-2 infected in human Calu-3 cells; assay type: functional, Severe acute respiratory syndrome coronavirus 2
[16] = system: Caco-2; experiment: as §3; assay type: toxicity, cell-based; conditions: caco-2
[17] = system: SARS-CoV-2; experiment: Selectivity ratio of EC50 for antiviral activity against SARS-CoV-2 infected in Vero cells to EC50 for antiviral activity against SARS-CoV-2 infected in human Caco-2 cells; assay type: functional, Severe acute respiratory syndrome coronavirus 2
[18] = system: Calu-3; experiment: as §4; assay type: toxicity, cell-based; conditions: calu-3
[19] = Solubility of compound in PBS; assay type: physicochemical; conditions: buffer
[20] = as §1; assay type: toxicity, cell-based, CCRF-CEM; conditions: CEM (CCRF-CEM) cells
[21] = as §2; assay type: toxicity, cell-based; conditions: Huh-7 cells

Compound	EC50 [4]	EC90 [4]	CC50 [5]	EC50 [6]	EC90 [6]	EC90 [7]	CC50 [8]	CC50 ([9]; pbmc)	EC50 [10]	EC90 [10]	EC50 [11]	EC90 [11]	EC90 [14]	CC50 ([2]; vero)	other results
CCC(CC)COC(=O)[C@H](C)N[P@](=O)(OC[C@H]1O[C@@](C#N)(c2ccc3c(N)ncnn23)[C@H](O)[C@@H]1O)Oc1ccccc1	0.5 µM	0.9 µM	11.2 µM	0.2 µM	0.6 µM	0.2 µM	1.4 µM	4.9 µM	3.2 µM	4.7 µM	0.01 µM	0.03 µM	0.7 µM		EC50 [1]: 0.014 µM; CC50 ([2]; Vero cells): > 100 µM; EC50 [3]: 0.01 µM; EC50 ([7]; Severe acute respiratory syndrome coronavirus 2, Caco-2, 72 h): 0.03 µM; CC50 [12]: > 100 µM; CC50 [13]: > 100 µM
Cc1cc(C(=O)N[C@@H](Cc2cccc3ccccc23)C(=O)N[C@@H](CC(C)C)C(=O)N[C@@H](C[C@@H]2CCCNC2=O)C(O)S(=O)(=O)[O-])no1.[Na+] (some centres not stated)	0.4 µM	0.7 µM	24.3 µM	0.8 µM	2.7 µM	1.7 µM	51.1 µM	58.6 µM	4.5 µM	9.3 µM	0.3 µM		5.3 µM	> 100 µM	Ratio EC50 [15]: 3; CC50 [16]: > 100 µM; Ratio EC50 [17]: 15; CC50 [18]: > 100 µM; solubility [19]: 400 µg/mL; EC50 [14]: 1.2 µM
CC(C)(C)[C@H](NC(=O)C(F)(F)F)C(=O)N1C[C@H]2[C@@H]([C@H]1C(=O)N[C@H](C#N)C[C@@H]1CCNC1=O)C2(C)C	0.03 µM	0.2 µM		0.7 µM	5.3 µM	0.3 µM			3.7 µM	5.6 µM	0.2 µM	0.3 µM	7.6 µM		EC50 [1]: 0.11 µM; CC50 ([2]; Vero cells): > 100 µM; EC50 [3]: 0.034 µM; CC50 [20]: > 100 µM; CC50 [21]: > 100 µM; CC50 ([9]; PBMC cells): > 100 µM; CC50 [12]: > 100 µM; CC50 [13]: > 100 µM; EC50 [14]: 1.9 µM
CC(C)C[C@H](NC(=O)[C@H](Cc1cccc2ccccc12)NC(=O)OCc1ccccc1)C(=O)N[C@H](/C=C(\C#N)C(N)=O)C[C@@H]1CCCNC1=O			29 µM				29 µM	> 100 µM	> 10 µM	> 10 µM	0.9 µM	7 µM		> 100 µM	
CC(C)C[C@H](NC(=O)[C@H](Cc1ccc(O)cc1)NC(=O)OCc1ccccc1)C(=O)N[C@H](C=O)C[C@@H]1CCCNC1=O			> 100 µM				> 100 µM	> 100 µM	> 10 µM	> 10 µM	8.5 µM	47.6 µM		> 100 µM	
Cc1ccsc1C(=O)N[C@@H](Cc1cccc2ccccc12)C(=O)N[C@@H](CC(C)C)C(=O)N[C@H](C=O)C[C@@H]1CCCNC1=O			16.3 µM				35.1 µM	51.5 µM	2.2 µM	4.8 µM	0.3 µM	0.8 µM		53.1 µM	
CC(C)C[C@H](NC(=O)[C@H](Cc1cccc2ccccc12)NC(=O)OCc1ccccc1)C(=O)N[C@H](C=O)C[C@@H]1CCCNC1=O			24.3 µM				38.9 µM	42.4 µM	2.6 µM	5.9 µM	0.7 µM	1 µM		> 100 µM	
Cc1cc(C(=O)N[C@@H](Cc2cccc3ccccc23)C(=O)N[C@@H](CC(C)C)C(=O)N[C@@H](C[C@@H]2CCCNC2=O)C(O)C(=O)NC2CC2)no1 (some centres not stated)			> 100 µM				> 100 µM	> 100 µM	> 10 µM	> 10 µM	36.7 µM	87.4 µM		> 100 µM	
